Test results taken from PubChem BioAssay AID1845201 (Molecular Pharmacology Branch, DTP, NCI, 2023).
pIC50: −log10 of the molar value.

Tested on: COR L88 complex tumor spheroid viability
Experiment: Anticancer human tumor COR L88 cell line growth inhibition;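 also: compound exposure lasted 7 days before viability readout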;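 as to viability, T/C: percent of DMSO vehicle-treated spheroids = 100%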
Details: for pIC50: curve of first compound; for viability, T/C: stronger effect = lower value
Method in brief: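 Single agents and combinations were tested on spheroids built from tumor cells plus HUVEC and hMSC, at half-log dilutions starting at or near clinical Cmax, else 10 microM; final DMSO 0.25% (v/v).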

[1] = second compound 30 pM, first compound 0.0316 µM
[2] = second compound 30 pM, first compound 0.1 µM
[3] = second compound 30 pM, first compound 0.316 µM
[4] = second compound 30 pM, first compound 1 µM
[5] = second compound 30 pM, first compound 3.16 µM
[6] = second compound 30 pM, first compound 10 µM
[7] = second compound 94.9 pM, first compound 0.0316 µM
[8] = second compound 94.9 pM, first compound 0.1 µM
[9] = second compound 94.9 pM, first compound 0.316 µM
[10] = second compound 94.9 pM, first compound 1 µM
[11] = second compound 94.9 pM, first compound 3.16 µM
[12] = second compound 94.9 pM, first compound 10 µM
[13] = second compound 0.0003 µM, first compound 0.0316 µM
[14] = second compound 0.0003 µM, first compound 0.1 µM
[15] = second compound 0.0003 µM, first compound 0.316 µM
[16] = second compound 0.0003 µM, first compound 1 µM
[17] = second compound 0.0003 µM, first compound 3.16 µM
[18] = second compound 0.0003 µM, first compound 10 µM
[19] = second compound 0.000949 µM, first compound 0.0316 µM
[20] = second compound 0.000949 µM, first compound 0.1 µM
[21] = second compound 0.000949 µM, first compound 0.316 µM
[22] = second compound 0.000949 µM, first compound 1 µM
[23] = second compound 0.000949 µM, first compound 3.16 µM
[24] = second compound 0.000949 µM, first compound 10 µM
[25] = second compound 0.003 µM, first compound 0.0316 µM
[26] = second compound 0.003 µM, first compound 0.1 µM
[27] = second compound 0.003 µM, first compound 0.316 µM
[28] = second compound 0.003 µM, first compound 1 µM
[29] = second compound 0.003 µM, first compound 3.16 µM
[30] = second compound 0.003 µM, first compound 10 µM

Cc1cc(C)c(CNC(=O)c2cc(-c3ccc(CN4CCOCC4)cc3)cc3c2cnn3C2CCCC2)c(=O)[nH]1 + COc1cc2c(cc1O)CCNC21CSC2c3c(OC(C)=O)c(C)c4c(c3C(COC1=O)N1C(O)C3Cc5cc(C)c(OC)c(O)c5C(C21)N3C)OCO4
pIC50 (second compound 30 pM): < 5.00 | pIC50 (second compound 94.9 pM): < 5.00 | pIC50 (second compound 0.0003 µM): 5.61 | pIC50 (second compound 0.000949 µM): > 7.50 | pIC50 (second compound 0.003 µM): > 7.50 | viability, T/C [1]: 107% | viability, T/C [2]: 93.7% | viability, T/C [3]: 102% | viability, T/C [4]: 85.3% | viability, T/C [5]: 73.8% | viability, T/C [6]: 60.2% | viability, T/C [7]: 98.4% | viability, T/C [8]: 107% | viability, T/C [9]: 104% | viability, T/C [10]: 86.9% | viability, T/C [11]: 79.2% | viability, T/C [12]: 51.1% | viability, T/C [13]: 63.8% | viability, T/C [14]: 67.3% | viability, T/C [15]: 62.6% | viability, T/C [16]: 50.4% | viability, T/C [17]: 48.7% | viability, T/C [18]: 42.2% | viability, T/C [19]: 49.3% | viability, T/C [20]: 43.8% | viability, T/C [21]: 39.7% | viability, T/C [22]: 43.1% | viability, T/C [23]: 35.2% | viability, T/C [24]: 10.1% | viability, T/C [25]: 1.12% | viability, T/C [26]: 1.08% | viability, T/C [27]: 0.94% | viability, T/C [28]: 1.18% | viability, T/C [29]: 0.93% | viability, T/C [30]: 0.96%

Cc1sc2c(c1C)C(c1ccc(Cl)cc1)=NC(CC(=O)Nc1ccc(O)cc1)c1nnc(C)n1-2 (stereo not given) + COc1cc2c(cc1O)CCNC21CSC2c3c(OC(C)=O)c(C)c4c(c3C(COC1=O)N1C(O)C3Cc5cc(C)c(OC)c(O)c5C(C21)N3C)OCO4
pIC50 (second compound 30 pM): 6.34 | pIC50 (second compound 94.9 pM): 6.36 | pIC50 (second compound 0.0003 µM): 6.33 | pIC50 (second compound 0.000949 µM): 6.98 | pIC50 (second compound 0.003 µM): > 8.02 | viability, T/C (second compound 30 pM, first compound 0.00949 µM): 92.5% | viability, T/C (second compound 30 pM, first compound 0.03 µM): 90.9% | viability, T/C (second compound 30 pM, first compound 0.0949 µM): 101% | viability, T/C (second compound 30 pM, first compound 0.3 µM): 65.3% | viability, T/C (second compound 30 pM, first compound 0.949 µM): 23.6% | viability, T/C (second compound 30 pM, first compound 3 µM): 14.8% | viability, T/C (second compound 94.9 pM, first compound 0.00949 µM): 92.6% | viability, T/C (second compound 94.9 pM, first compound 0.03 µM): 96.5% | viability, T/C (second compound 94.9 pM, first compound 0.0949 µM): 94.2% | viability, T/C (second compound 94.9 pM, first compound 0.3 µM): 55.3% | viability, T/C (second compound 94.9 pM, first compound 0.949 µM): 33.5% | viability, T/C (second compound 94.9 pM, first compound 3 µM): 14.1% | viability, T/C (second compound 0.0003 µM, first compound 0.00949 µM): 76.1% | viability, T/C (second compound 0.0003 µM, first compound 0.03 µM): 118% | viability, T/C (second compound 0.0003 µM, first compound 0.0949 µM): 122% | viability, T/C (second compound 0.0003 µM, first compound 0.3 µM): 72.6% | viability, T/C (second compound 0.0003 µM, first compound 0.949 µM): 15.1% | viability, T/C (second compound 0.0003 µM, first compound 3 µM): 3.51% | viability, T/C (second compound 0.000949 µM, first compound 0.00949 µM): 87.4% | viability, T/C (second compound 0.000949 µM, first compound 0.03 µM): 84.6% | viability, T/C (second compound 0.000949 µM, first compound 0.0949 µM): 54% | viability, T/C (second compound 0.000949 µM, first compound 0.3 µM): 5.62% | viability, T/C (second compound 0.000949 µM, first compound 0.949 µM): 1.33% | viability, T/C (second compound 0.000949 µM, first compound 3 µM): 0.42% | viability, T/C (second compound 0.003 µM, first compound 0.00949 µM): 0.68% | viability, T/C (second compound 0.003 µM, first compound 0.03 µM): 0.7% | viability, T/C (second compound 0.003 µM, first compound 0.0949 µM): 0.6% | viability, T/C (second compound 0.003 µM, first compound 0.3 µM): 0.57% | viability, T/C (second compound 0.003 µM, first compound 0.949 µM): 0.69% | viability, T/C (second compound 0.003 µM, first compound 3 µM): 1.49%

[2H]c1nc(C)nc([2H])c1-c1cc(NC[C@@H](C)c2cccc3c(C(=O)NC)ccnc23)ncn1 + COc1cc2c(cc1O)CCNC21CSC2c3c(OC(C)=O)c(C)c4c(c3C(COC1=O)N1C(O)C3Cc5cc(C)c(OC)c(O)c5C(C21)N3C)OCO4
pIC50 (second compound 30 pM): < 5.00 | pIC50 (second compound 94.9 pM): < 5.00 | pIC50 (second compound 0.0003 µM): < 5.00 | pIC50 (second compound 0.000949 µM): 5.35 | pIC50 (second compound 0.003 µM): > 7.50 | viability, T/C [1]: 98.3% | viability, T/C [2]: 98.8% | viability, T/C [3]: 96.3% | viability, T/C [4]: 105% | viability, T/C [5]: 102% | viability, T/C [6]: 98.3% | viability, T/C [7]: 102% | viability, T/C [8]: 100% | viability, T/C [9]: 110% | viability, T/C [10]: 101% | viability, T/C [11]: 94.6% | viability, T/C [12]: 88% | viability, T/C [13]: 72.8% | viability, T/C [14]: 68.8% | viability, T/C [15]: 66.9% | viability, T/C [16]: 73.3% | viability, T/C [17]: 73.4% | viability, T/C [18]: 69.6% | viability, T/C [19]: 59% | viability, T/C [20]: 58.7% | viability, T/C [21]: 55.9% | viability, T/C [22]: 57.4% | viability, T/C [23]: 50.7% | viability, T/C [24]: 45.8% | viability, T/C [25]: 0.64% | viability, T/C [26]: 0.73% | viability, T/C [27]: 0.53% | viability, T/C [28]: 0.45% | viability, T/C [29]: 0.55% | viability, T/C [30]: 1.03%
